Molecules are shown by their SMILES.

Take `COc1ccc(N)c2ccccc12`: the pKa (commonly the negative logarithm of the acid dissociation constant) is 4.9.
In turn, `Cc1nc2ccccn2c1C(=O)NCc1ccc(Cl)cc1` came in with a pKa of 5.1.
On the same count and under the same terms, to `COc1ccc(CNC(=O)c2c(C)nc3ccccn23)cc1` belongs 5; to `CC(=O)Nc1ccc(Nc2ncnc3c2c(-c2ccccc2)cn3-c2ccccc2)cc1`, 3.9; to `C1=C(c2ccc3ccccc3c2)N2CC[NH+]=C2c2ccccc21`, 10.2.
Same read-out and setting: to `O=C1N(Cc2c[nH]c3ccccc23)CCCC12CCN(c1cnc3ccccc3n1)CC2` belongs 3.9; to `COc1cc(Nc2ccccc2C(=O)[O-])cc(OC)c1`, 4; to `Clc1ccc2c(c1)[NH+]=C(N1CCCCC1)c1ccccc1N2`, 7.2.
Same read-out and setting: the figure for `N#Cc1ccc2[nH]cc(-c3ccnc(N)n3)c2c1` is 5.3; for `COc1ccc2[nH]cc(CN3CCCC4(CCN(c5nc(C)cc(C)n5)CC4)C3=O)c2c1` it is 4.65.
`CCc1cc(Br)ccc1S(=O)(=O)NCc1ccccc1`: the pKa turned out to be 10.6.
The same measure, in the same setting: to `COc1cccc(-c2nnc3n(Cc4ccccc4Cl)c(=O)c4ccccc4n23)c1O` belongs 8.4; to `Nc1n[nH]c2cc(Br)ccc12`, 2.9; to `N#Cc1csc(NC(=O)Nc2ccc(Cl)c(Cl)c2)n1`, 8.3.
In turn, `O=C1CN(c2ccccc2)C(=O)N1` returned a pKa of 8.3.
On the same count and under the same terms, the figure for `C1=CN2CC(c3ccccc3)[NH+]=C2S1` (centres undefined) is 8.7; for `COCc1nc2ccccc2n1Cc1ccc(C(C)(C)C)cc1` it is 4.2; for `Nc1nc(-c2ccccc2)cc2ccccc12` it is 6.9.
The same measure, in the same setting: to `CS(=O)(=O)c1ccc(-c2cnc(N)c(-c3ccc(C(F)(F)F)cc3)c2)cc1` belongs 4.9.
Compound `CC(c1cc2ccccc2s1)N(O)C(N)=O` (centres undefined) came in with a pKa of 10.2.
The compound `Ic1cccc(-c2nn[n-]n2)c1` had a pKa of 3.7.
In turn, `Cc1ccc(C)n1-c1ccc(C(=O)[O-])c(O)c1` came in with a pKa of 2.3.
Compound `COc1ccc(-c2nc(Nc3ccc(F)cc3F)c3ccccc3n2)cc1OC` had a pKa of 5.2.
On the same count and under the same terms, to `CC(NC(=O)c1ccccc1/N=C/c1c(O)ccc2ccccc12)c1ccccc1` (centres undefined) belongs 6.9; to `c1ccc(-c2nc3n(c2-c2ccccc2)CCS3)cc1`, 4.8; to `O=C1N(Cc2c[nH]c3ccccc23)CCCC12CCN(c1ncccn1)CC2`, 3.8.
Compound `C[C@H](C#Cc1ccc(Cc2ccc(F)cc2)s1)N(O)C(N)=O` had a pKa of 10.4.
For `Nc1ccc(-c2cc3ccccc3oc2=O)cc1`, the pKa turned out to be 3.9.
On the same count and under the same terms, to `COc1ccc(Nc2ccc3ccccc3n2)cc1` belongs 6.5; to `N#Cc1cnc(NC(=O)Nc2ccc(Cl)c(Cl)c2)s1`, 7.5; to `c1ccc(Nc2ncc3ccccc3n2)cc1`, 3.6.
`CCC1(c2ccccc2)C(=O)NC(=O)N(C)C1=O` (centres undefined) gave a pKa of 7.6.
`NC(=O)c1ccc(-c2cc(-c3ccccc3)cnc2N)cc1` registered a pKa of 5.4.
Still for that read-out and setting: to `Cc1ccc(OC(C)(C)C(=O)N[C@@H](C)[C@@H](Cc2ccc(OCCF)cc2)c2cccc(C#N)c2)nc1` belongs 2.7; to `Cc1cc(C)nc(N2CCC3(CCCN(Cc4nn(C)nc4-c4ccccc4)C3=O)CC2)n1`, 4.7; to `Cc1cc(C)nc(N2CCC3(CCCN(Cc4cn(C)c5ccccc45)C3=O)CC2)n1`, 4.7.
On the same count and under the same terms, the figure for `Nc1ncnc2ccc(-c3ccnc(F)c3)nc12` is 4.5.
Still for that read-out and setting: the figure for `COc1cccc(-c2cnc(N)c(-c3ccc(C(N)=O)cc3)c2)c1` is 5.3; for `N#Cc1cc(C[NH+]2CCC(Nc3ncnc4sc(Cl)cc34)CC2)ccc1F` it is 7; for `COc1ccccc1S(=O)(=O)Nc1ccc2c(c1)CN(C)C(=O)N2` it is 8.65.
On to `O=c1[nH]c2cc(C(F)(F)F)ccc2n1Cc1cc(Cl)ccc1O`, for which the pKa was found to be 9.75.

The source holds these as a separate data set.
The compound `COc1ccc(-c2c(C)nc3c(-c4ccccn4)cnn3c2N)cc1` registered a pKa of 6.07.
The same measure, in the same setting: to `CCOCC(=O)N1CCC(CNc2nc3c(s2)CCOc2ccc(F)cc2-3)CC1` belongs 3.7.
In turn, `O=C([O-])COc1ccc(Cl)cc1C1CCCCC1` displayed a pKa of 3.51. The pKa values of the last two compounds are within 0.2 log units of each other.
On the same count and under the same terms, to `CC(C)(C)Cn1c(Cc2ccc(NS(N)(=O)=O)cc2)cc2cnc(C#N)nc21` belongs 9.3; to `C/C(=C\c1cc(C)ccn1)[C@@H]1C[C@@H]2O[C@]2(C)CCC[C@H](C)[C@H](O)[C@@H](C)C(=O)C(C)(C)[C@@H](O)CC(=O)O1`, 5.5.
Still for that read-out and setting: the figure for `CS(=O)(=O)Nn1c(=O)[nH]c2cc(C(F)(F)F)c(N3CCCOCC3)cc2c1=O` is 8.4; for `CC(=O)N1CCC(CNc2nc3c(s2)CCCc2ccc(F)cc2-3)CC1` it is 4.31.
The same measure, in the same setting: the figure for `O=C([O-])c1ccccc1Nc1ccc(CCc2ccc(Cl)c(Cl)c2)cc1` is 4.39; for `Cc1onc(-c2ccccc2)c1-c1ccc(S(N)(=O)=O)cc1` it is 10.
With `Cc1ccc(C)n1-c1ccc(Cl)cc1C(=O)[O-]`, the pKa is 3.35.
Same read-out and setting: to `CC(C)N(CCCCOCC(=O)NS(C)(=O)=O)c1cnc(-c2ccccc2)c(-c2ccccc2)n1` belongs 3.37; to `CS(=O)(=O)Nn1c(=O)[nH]c2cc(C(F)(F)F)ccc2c1=O`, 8.35; to `COc1ccc(SC)c2c1C[C@@H]1[C@@H](C2)OCC[NH+]1C`, 6.25.
With `CC(C)Cn1cnc2c(N)nc3ccccc3c21`, the pKa turned out to be 7.24.
Consider `OCCn1cc(-c2cnc3nnn(Cc4ccc5ncccc5c4)c3n2)cn1`, for which the pKa is 4.6.
On the same count and under the same terms, the figure for `Cc1ccc(Nc2ncc(C(=O)N3CCCCC3)cc2Cl)cn1` is 5.2.
Same read-out and setting: to `CC(C)N(CCCCOCC(=O)[O-])c1cnc(-c2ccccc2)c(-c2ccccc2)n1` belongs 3.38; to `[NH3+]C(CO)c1ccccc1` (centres undefined), 8.4; to `N#Cc1ncc2cc(COc3cccc(CCC(=O)[O-])c3)n(CCC3CCCCC3)c2n1`, 4.5.
In turn, `CS(=O)(=O)c1ccc(-c2nc3c(c(=O)[nH]2)COCC3)cc1` yielded a pKa of 7.31.
Same read-out and setting: to `CC(C)[NH+](CCc1c[nH]c2ccccc12)Cc1ccc(CCC(=O)N=O)cc1` belongs 8.66; to `O=NC(=O)CCc1ccc(C[NH+]2CCC(c3c[nH]c4ccccc34)CC2)cc1`, 8.55.
The same measure, in the same setting: to `Fc1ccc2c(/C=C/c3nn[n-]n3)c[nH]c2c1` belongs 4.94; to `O=C(Nc1cccc2cnccc12)c1ccc(-c2ccccc2)cc1`, 4.1; to `O=C1CN=C(c2ccccc2)c2cc3ccccc3cc2N1`, 3.8.
`COc1ccc(OC)c(CNc2ccc3nc(N)nc(N)c3c2Cl)c1`: the pKa was determined as 7.1.
Still for that read-out and setting: to `O=c1[nH]c(-c2ccc(C(F)(F)F)cc2)nc2c1CSCC2` belongs 7.94.
The same measure, in the same setting: to `Fc1ccc([C@H]2CC[NH2+]C[C@@H]2COc2ccc3c(c2)OCO3)cc1` belongs 9.5; to `Clc1ccc(-c2ccc(-c3ccnc(N4CC[NH2+]CC4)n3)s2)cc1`, 8.9.
Same read-out and setting: the figure for `Cn1c(-c2ccc(C[NH+](C)C)cc2)cc2onc(-c3ccccc3)c2c1=O` is 8.38; for `COc1ccc(SCCc2ccncc2)cc1` it is 5.6; for `CN(CCO)c1cc2c(=O)n(NS(C)(=O)=O)c(=O)[nH]c2cc1C(F)(F)F` it is 8.3.
In the case of `Cc1c(CC(=O)[O-])c2cccnc2n1S(=O)(=O)c1ccc(Cl)cc1`, the pKa came to 3.86.
